In PubChem BioAssay (NCI):
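At the GI50, growth is halved. TGI marks complete inhibition of growth.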

What was measured:
Experiment in all cases: NCI tumour cell line growth inhibition, 384-well format
SW-620 colon = system: SW-620 colon
HS 578T breast = system: HS 578T breast
MDA-MB-468 breast = system: MDA-MB-468 breast
M14 melanoma = system: M14 melanoma
HOP-62 NSCLC = system: HOP-62 NSCLC
DU-145 prostate = system: DU-145 prostate
786-0 renal = system: 786-0 renal
HCC-2998 colon = system: HCC-2998 colon
MALME-3M melanoma = system: MALME-3M melanoma
HCT-116 colon = system: HCT-116 colon
OVCAR-8 ovarian = system: OVCAR-8 ovarian
SF-539 CNS = system: SF-539 CNS
SF-295 CNS = system: SF-295 CNS
MDA-MB-435 melanoma = system: MDA-MB-435 melanoma
SN12C renal = system: SN12C renal
UO-31 renal = system: UO-31 renal
SNB-19 CNS = system: SNB-19 CNS
A498 renal = system: A498 renal
TK-10 renal = system: TK-10 renal
HT29 colon = system: HT29 colon
NCI/ADR-RES ovarian = system: NCI/ADR-RES ovarian
EKVX NSCLC = system: EKVX NSCLC
SK-OV-3 ovarian = system: SK-OV-3 ovarian
HL-60(TB) leukemia = system: HL-60(TB) leukemia
KM12 colon = system: KM12 colon
SR leukemia = system: SR leukemia
UACC-62 melanoma = system: UACC-62 melanoma
OVCAR-5 ovarian = system: OVCAR-5 ovarian
UACC-257 melanoma = system: UACC-257 melanoma
ACHN renal = system: ACHN renal
T-47D breast = system: T-47D breast
NCI-H322M lung = system: NCI-H322M lung
SK-MEL-5 melanoma = system: SK-MEL-5 melanoma
MDA-MB-231 breast = system: MDA-MB-231 breast
HOP-92 NSCLC = system: HOP-92 NSCLC
K-562 leukemia = system: K-562 leukemia
BT-549 breast = system: BT-549 breast
CCRF-CEM leukemia = system: CCRF-CEM leukemia
LOX IMVI melanoma = system: LOX IMVI melanoma
A549 NSCLC = system: A549 NSCLC
IGROV1 ovarian = system: IGROV1 ovarian
OVCAR-4 ovarian = system: OVCAR-4 ovarian
CAKI-1 renal = system: CAKI-1 renal
MCF7 breast = system: MCF7 breast
NCI-H226 lung = system: NCI-H226 lung
MOLT-4 leukemia = system: MOLT-4 leukemia
SNB-75 CNS = system: SNB-75 CNS

SMILES: C=CC(=O)N1CCC(CNc2ncnc(N)c2-c2ccc(Oc3ccccc3)cc2)CC1
- GI50 (SW-620 colon): 18.6 µM
- TGI (SW-620 colon): 34 µM
- GI50 (HS 578T breast): 11.4 µM
- TGI (HS 578T breast): 24.5 µM
- GI50 (MDA-MB-468 breast): 10.6 µM
- TGI (MDA-MB-468 breast): 23.2 µM
- GI50 (M14 melanoma): 29.6 µM
- TGI (M14 melanoma): 77.4 µM
- GI50 (HOP-62 NSCLC): 20.7 µM
- TGI (HOP-62 NSCLC): 48.3 µM
- GI50 (DU-145 prostate): 19.5 µM
- TGI (DU-145 prostate): 46.4 µM
- GI50 ([…]-0 renal): 18.7 µM
- TGI (786-0 renal): 42.9 µM
- GI50 (HCC-2998 colon): 18.7 µM
- TGI (HCC-2998 colon): 33.2 µM
- GI50 (MALME-3M melanoma): 30.5 µM
- TGI (MALME-3M melanoma): > 73.5 µM
- GI50 (HCT-116 colon): 21.1 µM
- TGI (HCT-116 colon): 48.3 µM
- GI50 (OVCAR-8 ovarian): 21.2 µM
- TGI (OVCAR-8 ovarian): > 62.2 µM
- GI50 (SF-539 CNS): 20.9 µM
- TGI (SF-539 CNS): > 58.6 µM
- GI50 (SF-295 CNS): 26.1 µM
- TGI (SF-295 CNS): > 71.1 µM
- GI50 (MDA-MB-435 melanoma): 28.7 µM
- TGI (MDA-MB-435 melanoma): > 73.3 µM
- GI50 (SN12C renal): 17 µM
- TGI (SN12C renal): 43 µM
- GI50 (UO-31 renal): 22.3 µM
- TGI (UO-31 renal): > 100 µM
- GI50 (SNB-19 CNS): 23.4 µM
- TGI (SNB-19 CNS): 71.7 µM
- GI50 (A498 renal): 17.2 µM
- TGI (A498 renal): 37 µM
- GI50 (TK-10 renal): 18.3 µM
- TGI (TK-10 renal): 36.2 µM
- GI50 (HT29 colon): 25 µM
- TGI (HT29 colon): 63.1 µM
- GI50 (NCI/ADR-RES ovarian): 15.9 µM
- TGI (NCI/ADR-RES ovarian): 34.5 µM
- GI50 (EKVX NSCLC): 20.1 µM
- TGI (EKVX NSCLC): 48.7 µM
- GI50 (SK-OV-3 ovarian): 16.2 µM
- TGI (SK-OV-3 ovarian): 44.9 µM
- GI50 (HL-60(TB) leukemia): 11.8 µM
- TGI (HL-60(TB) leukemia): 24 µM
- GI50 (KM12 colon): 23 µM
- TGI (KM12 colon): 47.6 µM
- GI50 (SR leukemia): 8.25 µM
- TGI (SR leukemia): 21.3 µM
- GI50 (UACC-62 melanoma): 16.6 µM
- TGI (UACC-62 melanoma): 33.5 µM
- GI50 (OVCAR-5 ovarian): 38.1 µM
- TGI (OVCAR-5 ovarian): > 100 µM
- GI50 (UACC-257 melanoma): 18.1 µM
- TGI (UACC-257 melanoma): 34.2 µM
- GI50 (ACHN renal): 25.4 µM
- TGI (ACHN renal): 66.4 µM
- GI50 (T-47D breast): 17.7 µM
- TGI (T-47D breast): 46.6 µM
- GI50 (NCI-H322M lung): 20.4 µM
- TGI (NCI-H322M lung): > 69.2 µM
- GI50 (SK-MEL-5 melanoma): 16.1 µM
- TGI (SK-MEL-5 melanoma): 30.6 µM
- GI50 (MDA-MB-231 breast): 20.4 µM
- TGI (MDA-MB-231 breast): 52.6 µM
- GI50 (HOP-92 NSCLC): 15.2 µM
- TGI (HOP-92 NSCLC): 39.1 µM
- GI50 (K-562 leukemia): 15.2 µM
- TGI (K-562 leukemia): 29.5 µM
- GI50 (BT-549 breast): 14.1 µM
- TGI (BT-549 breast): 28.6 µM
- GI50 (CCRF-CEM leukemia): 17.2 µM
- TGI (CCRF-CEM leukemia): 31 µM
- GI50 (LOX IMVI melanoma): 17.2 µM
- TGI (LOX IMVI melanoma): 31 µM
- GI50 (A549 NSCLC): 21 µM
- TGI (A549 NSCLC): 55.4 µM
- GI50 (IGROV1 ovarian): 14.6 µM
- TGI (IGROV1 ovarian): 28.3 µM
- GI50 (OVCAR-4 ovarian): 21.2 µM
- TGI (OVCAR-4 ovarian): 69.7 µM
- GI50 (CAKI-1 renal): 16.9 µM
- TGI (CAKI-1 renal): 43.1 µM
- GI50 (MCF7 breast): 25.7 µM
- TGI (MCF7 breast): 98.1 µM
- GI50 (NCI-H226 lung): 15.6 µM
- TGI (NCI-H226 lung): 36 µM
- GI50 (MOLT-4 leukemia): 14.5 µM
- TGI (MOLT-4 leukemia): 27.7 µM
- GI50 (SNB-75 CNS): 15 µM
- TGI (SNB-75 CNS): 36.5 µM
